Source: US9527876B2, “Prodrugs of bicyclic substituted pyrimidine type PDE-5 inhibitors” (Xuanzhu Pharma Co., Ltd., priority 2013, dated 2016)
Values after ≈ are worked out from the molar mass of the structure shown. Read-outs that look alike come from different tables or passages of the source.

How the values were obtained:
[1] = Rat pharmacokinetics after intragastric administration (LC-MS/MS of plasma); format: in vivo, rats; details: for F: rats, intragastric, absolute bioavailability
From the text: Instrument and equipment: API4000 LC-MS/MS

[2] = in vivo, background statement; cited from earlier work
PDE-5 = target: T1, PDE-5 (Homo sapiens, UniProt O76074); assay: Scintillation counter (Topcount) PDE-5 enzyme assay; format: biochemical
T1 construct: PDE-5 source, human platelets; from tissue; host or cells: human platelets

[3] = rat, in vivo, iv, 1 mg/kg
Description: (§1) Chromatographic column: Agilent XDBC18(2.1×50 mm, 5 μm)
(§2) Rat blood collection: animal was fixed, heated at tail with water-bath 10 min before each time point, about 200 μL of blood was collected from caudal vein, and the collected blood was placed in anticoagulative tube containing heparin sodium. Blood sample was centrifuged under 8000 rpm at 4° C. for 6 min to obtain plasma sample, and the plasma must be prepared within 30 min after blood collection. The plasma was stored in −80° C. refrigerator before test.
(§3) Experimental Method • 1) Take a sample to be tested from refrigerator (−80° C.), melt in situ at room temperature, then eddy for 5 min; • 2) Precisely move 20 μL of sample into 1.5 mL centrifuge tube; • 3) Add 200 μL of internal standard solution; • 4) Eddy for 3 min, then centrifuge for 5 min (12000 rpm); • 5) Precisely move 50 μL of supernatant and add into 150 μL of water, eddy for 3 min, and load to LC-MS/MS for analysis.
(§4) Test sample (plasma sample) concentrations were output by using Analyst 1.5.1 of AB Company. […] Mean values, standard deviation and variable coefficient (those directly outputed by Analyst 1.5.1 were not calculated), were calculated by Microsoft Excel. PK parameter was calculated by using software Pharsight Phoenix 6.2.
(§5) Wherein T1/2 represents half-life period; AUCinf represents area under drug-time curve 0→∞; CL represents clearance rate; Vss represents apparent volume of distribution; Cmax represents peak concentration of the compound in plasma; Tmax represents the time at which the compound reached the peak concentration; F % represents absolute bioavailability.

in vivo = details: rat, iv, 2 mg/kg
Description: as §1, §2, §3, §4, §5

[4] = Rat pharmacokinetics after intravenous injection (LC-MS/MS of plasma); details: for concentration at 0.083 h: 1 mg/kg, Concentration of Compound 1 in rat body
Description: as §1, §2, §3, §4, §5

[5] = Solubility of Compound 1 in buffer solutions of different pH (visual observation); format: physicochemical; details: for solubility at 5 min: aqueous buffer, thermodynamic from solid
Description: 1. Method for preparing sample of Compound 1, 6 parts of test sample were precisely weighed, each was 2 mg and was separately added to 40 μL of buffer solutions of pH 4, pH 5, pH 6, pH 7, pH 8, pH 9, respectively. Jolted (ultrasonic treatment for 5 min) and detected by visual observation.
1.02 g of potassium hydrogen phthalate was weighed, added to 0.05 mL of 0.2 mol/L hydrochloric acid solution and an appropriate amount of water for dissolution, diluted by adding water to 100 mL, mixed homogeneously to obtain the subject solution.
1.02 g of potassium hydrogen phthalate was weighed, added to 11.3 mL of 0.2 mol/L sodium hydroxide solution and an appropriate amount of water for dissolution, diluted by adding water to 100 mL, mixed homogeneously to obtain the subject solution.
0.68 g of potassium dihydric phosphate was weighed, added to 2.8 mL of 0.2 mol/L sodium hydroxide solution and an appropriate amount of water for dissolution, diluted by adding water to 100 mL, mixed homogeneously to obtain the subject solution.
0.68 g of potassium dihydric phosphate was weighed, added to 14.55 mL of 0.2 mol/L sodium hydroxide solution and an appropriate amount of water for dissolution, diluted by adding water to 100 mL, mixed homogeneously to obtain the subject solution.
0.75 g of potassium chloride and 0.62 g of boric acid were weighed, added to 3.9 mL of 0.2 mol/L sodium hydroxide solution and an appropriate amount of water for dissolution, diluted by adding water to 200 mL, mixed homogeneously to obtain the subject solution.
0.75 g of potassium chloride and 0.62 g of boric acid were weighed, added to 20.8 mL of 0.2 mol/L sodium hydroxide solution and an appropriate amount of water for dissolution, diluted by adding water to 200 mL, mixed homogeneously to obtain the subject solution.

[6] = Solubility in ultrapure water (visual observation); format: physicochemical
Description: Method for preparing samples of Compounds 4, 4-A, Compounds 9, and 9-B: 2 mg of test sample was taken, gradually added to ultrapure water, treated with ultrasound for 5 min each time until the sample was completely dissolved by visional observation.

[7] = Solubility of Compound Q in buffer solutions of different pH (HPLC); format: physicochemical; details: aqueous buffer, thermodynamic from solid, 1 mg in 1 mL, read-out: Measured concentration (solubility)
Description: 2. Method for preparing sample of Compound Q, 4 parts of test sample were precisely weighed, each was 1 mg and was separately added to 1 mL of buffer solutions of pH 3, pH 5, pH 7, pH 9, treated with ultrasound for 5 min and filtered through 0.45 μm organic filtration membrane. The filter liquors were used as test sample solutions. 10 μL of each was injected into high performance liquid chromatograph, and peak areas were recorded.
4.88 mg of test sample was precisely weighed, placed in 10 mL volumetric flask, added to 1 mL of methanol for dissolution, then diluted with methanol to constant volume to obtain a solution containing 0.488 mg of control per 1 mL, which was used as mother liquor A. The mother liquor A was gradually diluted with methanol to obtain control solutions containing 0.0488 mg or 0.00976 mg per 1 mL.
Linear regression was performed by using control concentration (C) as abscissa, and peak area (Y) as ordinate so as to obtain a linear equation. The concentrations of test sample solutions were obtained by putting the peak areas of test sample solutions into the linear equation.
The control linear equation of Compound Q is: Y=24262C, correlation coefficient r=1.0000.
Instrument and equipment: Agilent 1200 HPLC
Chromatography column: YMC-Pack-Pro C18(150×4.6 mm, 5 μm)
Buffer solution: 0.02 mol/L ammonium dihydrogen phosphate (added 0.2% triethylamine, and regulated with phosphoric acid to pH=6.0)
Phase A: acetonitrile-buffer solution=[…], Phase B: acetonitrile-buffer solution=80:20
Mobile phase: Phase A: Phase B=65:35
Detection wavelength: 254 nm Sample size: 10 μL

[8] = in human, background statement; cited from earlier work

## COc1ccc(CN=c2[nH]c(N3CCC[C@H]3CO)ncc2C(=O)NCc2ncccn2)cc1Cl [Avanafil]
[1]; dose 2 mg/kg (Table 5)
  F: 4.5%
[2]
  half-life: about 1.2 h
PDE-5
  IC50: 3.1 nM
[3]
  AUCinf: 382 ng·h/mL
  T1/2: 30 min
In vivo
  Vd: 3.56 L/kg
  clearance: 88.5 mL/min/kg

## COc1ccc(CNc2nc(N3CC4CC4C3)ncc2C(=O)N[C@H]2CC[C@H](OP(=O)([O-])[O-])CC2)cc1Cl.[Na+].[Na+] (stereo partly drawn) [Compound 1, N-trans-4-(2-(3-azabicyclo[3.1.0]hexan-3-yl)-4-(3-chloro-4-methoxybenzylamino)pyrimidine-5-carboxamido)cyclohexyl phosphate disodium salt]
[1]; after intragastric administration (PO), LC-MS/MS
  Plasma detection of Compound 1 at each time point: not detected
[4]; after IV injection, time points other than 0.083 h, LC-MS/MS
  Plasma detection of Compound 1 at all other time points: could not be detected
[4]; rat, plasma, iv, Mean, IV 1 mg/kg, mean of 3 rats
  concentration at 0.083 h: 165 ng/mL
[4]; rat, plasma, iv, Rat 1, IV 1 mg/kg, Rat 1
  concentration at 0.083 h: 162 ng/mL
[4]; rat, plasma, iv, Rat 2, IV 1 mg/kg, Rat 2
  concentration at 0.083 h: 183 ng/mL
[4]; rat, plasma, iv, Rat 3, IV 1 mg/kg, Rat 3
  concentration at 0.083 h: 151 ng/mL
[4]; rats, after IV injection
  Time of conversion of prodrug Compound 1 into Compound Q: ≤ 0.083 h
[5]; buffer solution pH 5, 2 mg in 40 μL
  solubility at 5 min: ≥ 50 mg/mL
[5]; buffer solution pH 6, 2 mg in 40 μL
  solubility at 5 min: ≥ 50 mg/mL
[5]; buffer solution pH 7, 2 mg in 40 μL
  solubility at 5 min: ≥ 50 mg/mL
[5]; buffer solution pH 8, 2 mg in 40 μL
  solubility at 5 min: ≥ 50 mg/mL
[5]; buffer solution pH 9, 2 mg in 40 μL
  solubility at 5 min: ≥ 50 mg/mL
[5]; buffer solution pH 4, compared with pH 5 to 9
  Solubility, in words: decreased
[5]; buffer solution pH 4, 2 mg in 40 μL
  Phenomenon on dissolution: precipitated after about 5 min

## COc1ccc(CNc2nc(N3CCC4(CC4)C3)ncc2C(=O)N[C@H]2CC[C@H](OP(=O)([O-])[O-])CC2)cc1Cl.[Na+].[Na+] [Compound 4, N-trans-4-(4-((3-chloro-4-methoxybenzyl)amino)-2-(5-azaspiro[2.4]heptan-5-yl)pyrimidine-5-carboxamido)cyclohexyl phosphate disodium salt]
[6]
  Solubility in water relative to original drug Compound 4-A: 2000 times
[6]; thermodynamic from solid, ultrasound 5 min
  solubility at 5 min: ≥ 200 mg/mL

## COc1ccc(CNc2nc(N3CC4CC4C3)ncc2C(=O)N[C@H]2CC[C@H](O)CC2)cc1C (stereo partly drawn) [Compound 9-B, 2-(3-azabicyclo[3.1.0]hexan-3-yl)-N-(trans-4-hydroxycyclohexyl)-4-(4-methoxy-3-methylbenzylamino)pyrimidine-5-carboxamide]
[1]; dose 5 mg/kg (Table 5)
  F: 65%
[4]; rat, plasma, iv, 2 mg/kg
  Vd: 4.48 L/kg
  clearance: 13 mL/min/kg

## COc1ccc(CNc2nc(N3CC4CC4C3)ncc2C(=O)N[C@H]2CC[C@H](O)CC2)cc1Cl (stereo partly drawn) [Compound Q, 2-(3-azabicyclo[3.1.0]hexan-3-yl)-4-(3-chloro-4-methoxybenzylamino)-N-(trans-4-hydroxycyclohexyl)pyrimidine-5-carboxamide]
[7]; buffer solution pH 3
  solubility at 5 min: 371 µg/mL (≈ 786 µM)
[7]; buffer solution pH 5
  solubility at 5 min: 0.276 µg/mL (≈ 0.585 µM)
[7]; buffer solution pH 7
  solubility at 5 min: 0.124 µg/mL (≈ 0.263 µM)
[7]; buffer solution pH 9
  solubility at 5 min: 0.128 µg/mL (≈ 0.271 µM)

## CN1CC(=O)N2[C@H](c3ccc4c(c3)OCO4)c3[nH]c4ccccc4c3C[C@@H]2C1=O [Tadalafil]
[8]
  half-life: about 16 h
